# Values quoted from earlier work, collected in article PMC10352257, “In vivo effects of the alpha-synuclein misfolding inhibitor minzasolmin supports clinical development in Parkinson’s disease” (NPJ Parkinson's Disease, 2023).
# Tested on: Line 61 transgenic mice
# Set-up: method as in PMID 28585223
# Conditions: cited from earlier work
substance,measurement,value
CLR01,effect on gait deficits of Line 61 transgenic mice in round beam traversal test,improved
